The results in this text go back to patent US20240199628A1, “TETRAPYRROLE-BASED COMPOUNDS AND THEIR FOMULATIONS FOR ANTI-MICROBIAL THERAPY” (biolitec Unternehmensbeteiligungs II AG, priority 2021, published 2024).

Assay [1] deals with Staphylococcus aureus biofilms. The assay can be described thus: Antibacterial testing of bacterial biofilms (CFU/ml). Type of assay: cell-based, Staphylococcus aureus DSM1104. Particulars: S. aureus biofilms (FIG. 1F). Here is the method: For antibacterial testing of bacterial biofilms the 96 pins of a transferable solid phase plates (TSP; Nunc-Immuno™ TSP with MaxiSorp™ surface) were used to generate the biofilms. The TSP plates were transferred in 96-well plates with 200 μl fresh overnight culture of Staphylococcus aureus DSM1104 cells and incubated at 35° C. about 20 hours by gentle shaking. Within this time the bacterial cells established biofilms on the pins. After removing of unattached cells by gentle washing with 250 μl of 0.9% NaCl solution the TSP plates with the biofilms on the pins were incubated with 250 μl of the photosensitizer solution or the solvent of the photosensitizer solution for control samples for 30 minutes in the dark. After incubation and another washing the pins were irradiated by white light, with a power density and irradiation time resulting in an energy fluence of about 100 J/cm^2. For the quantification of remaining attached cells, the pins were transferred into 250 μl of 0.9% NaCl solution by gentle sonication. The samples are removed, suspended in the culture media, and the numbers of colony-forming units (CFU/ml) are enumerated after an adequate incubation time period.

The subject of the next assay is Staphylococcus aureus. Kind of assay: Antibacterial testing in submerged cultures (CFU/ml). Type of assay: cell-based. Particulars: S. aureus. The source says:
The organisms studied were Staphylococcus aureus DSM 1104 and DSM 11729, gram positive, Klebsiella pneumoniae, gram negative, Enterobacter aerogenes, gram negative, and Acinetobacter baumannii, gram negative. For antibacterial testing in submerged cultures cultured cells are suspended in sterile phosphate-buffered saline (PBS), sterile PBS supplemented with 10% sterile horse serum, or sterile PBS supplemented with 10% sheep blood. The bacterial suspensions are placed into sterile black well plates with clear bottoms. Concentrations of photosensitizer used in the study were as follows: 1 μM, 10 μM, 100 μM, and 1 mM. After an incubation time period of 30 minutes, the samples are exposed to white light, with a power density and irradiation time resulting in an energy fluency of about 100 J/cm^2. Control samples contained no photosensitizer and are not exposed to light. The control samples for dark toxicity are only exposed to photosensitizer without any illumination. After irradiation, the samples are removed and suspended again in the culture media. The numbers of colony-forming units (CFU/ml) are enumerated after an adequate incubation time period.

Assay [2] relates to 398-71-F6_20-IMC (origin Tansania, Clade A). The assay can be described thus: A3R5 assay, virus inhibition, HIV-1 IMC 398-71-F6_20. Type of assay: cell-based. Particulars: Human immunodeficiency virus 1, 96 h, read-out: anti-HIV-1 effect (inhibition). Here is the method:
(§1) Antiviral testing was performed using temoporfin. The organisms studied were replication competent HIV-1 infectious molecular env clones (IMC) in the A3R5 assay. Following IMC were used: (I) 398-71-F6_20-IMC (origin Tansania, Clade A), (II) X2278_C2_B6-IMC (origin Spain, Clade D), (III) 25710_2.43-IMC (origin India, Clade C) and (IV) CNE55-IMC (origin China, Clade […]). Virus specific original env sequences were cloned into the HIV-1 NL4-3 backbone (gene bank ID: M19921) sequence containing a Renilla reniformis luciferase reporter gene to measure the infectivity rate.
(§2) A3R5 cells are grown in RPMI1640 supplemented with 10% fetal calf serum, 25 mM HEPES, 50 μg/ml gentamycine and 1 mg/ml geneticin. […] Within the assay the A3R5 cells were added (plus 5 μg/ml DEAE-Dextran) to the temoporfin samples in the presence of the respective amount of IMC at 50,000 RLU equivalents. After 96 hrs incubation the read out of the A3R5 assays occurred. The decrease of the luminescence compared to the virus control was measured using Victor X3 luminometer (Perkin Elmer) and allowed the detection of a possible inhibitory effect of temoporfin against HIV-1 IMCs.

For assay [3], the system named is X2278_C2_B6-IMC (origin Spain, Clade D). The assay can be described thus: A3R5 assay, virus inhibition, HIV-1 IMC X2278_C2_B6. It counts as cell-based. Particulars: 96 h, read-out: anti-HIV-1 effect (inhibition). Here is the method: as §1, §2
The test system of assay [4] is CNE55-IMC (origin China, Clade CRF01_AR). Kind of assay: A3R5 assay, virus inhibition, HIV-1 IMC CNE55. Type of assay: cell-based. The conditions noted are these: Human immunodeficiency virus 1, 96 h, read-out: inhibition compared to the virus control. On the procedure:
as §1, §2

Assay [5] has as its system replication competent HIV-1 infectious molecular env clones (IMC). The assay can be described thus: A3R5 assay, all tested HIV-1 IMCs. Type of assay: cell-based. Particulars: two independent runs, concentrations of 2.5 μM and 1.25 μM. On the procedure:
as §1, §2

For assay [6], the system named is 25710_2.43-IMC (origin India, Clade C). Kind of assay: A3R5 assay, virus inhibition, HIV-1 IMC 25710_2.43. It counts as cell-based. Particulars: Human immunodeficiency virus 1, 96 h, read-out: inhibition compared to the virus control. On the procedure:
as §1, §2

Consider “[5,10,15,20-tetrakis(3-hydroxyphenyl)porphyrinato]zinc(II)”, for which the “antibacterial activity against biofilms” value in assay [1] is recorded as “active”. Besides, the antibacterial activity result is “high antibacterial activity” with Staphylococcus aureus (in the absence of light (FIG. 1A)); “activity” in the assay with Staphylococcus aureus (in the presence of complex media (serum) (FIG. 1A, middle)); “activity” in the assay on Staphylococcus aureus (in the presence of whole blood (FIG. 1A, right)).

A word on the inhibition: it is the relative decrease from the control value, in per cent. Regarding `Oc1cccc(-c2c3nc(c(-c4cccc(O)c4)c4ccc([nH]4)c(-c4cccc(O)c4)c4nc(c(-c5cccc(O)c5)c5ccc2[nH]5)CC4)C=C3)c1` [Temoporfin, 5,10,15,20-tetrakis(3-hydroxyphenyl)chlorin], the inhibition at 2.5 µM in assay [2] was found to be 35%; in assay [3], 38%; in assay [4], 22%; in assay [6] it was 42%. Further, the anti-HIV activity entry in assay [5] was “anti-HIV activity was observed”.
